In US20240156825A1, “USE OF SELECTIVE VEGFR2 AND FGFR1 INHIBITORS” (Fountain Therapeutics Inc., priority 2022, published 2024):
Read-outs that look alike come from different tables or passages of the source.

How the values were obtained:
[1] = target: VEGFR2 (Homo sapiens, UniProt P35968); settings: relative IC50: reported IC50 toward VEGFR2 divided by next lowest reported IC50 to any gene target
[2] = system: VEGFR2 and FGFR1; test: Selection of compounds that selectively inhibit both VEGFR2 and FGFR1 (average relative IC50); format: biochemical
[3] = system: any gene target; settings: cited from earlier work
[4] = target: FGFR1 (Homo sapiens, UniProt P11362)
[5] = lowest reported IC50 to any gene target, read-out: Min IC50_μM
[6] = average of VEGFR2 and FGFR1 relative IC50
[7] = lowest reported IC50 to any gene target, read-out: min IC50
[8] = next lowest IC50 value to any gene target, read-out: Min IC50_μM
[9] = relative IC50: reported IC50 toward FGFR1 divided by next lowest reported IC50 to any gene target

Chain of FGFR1 (P11362 22-822, species assumed): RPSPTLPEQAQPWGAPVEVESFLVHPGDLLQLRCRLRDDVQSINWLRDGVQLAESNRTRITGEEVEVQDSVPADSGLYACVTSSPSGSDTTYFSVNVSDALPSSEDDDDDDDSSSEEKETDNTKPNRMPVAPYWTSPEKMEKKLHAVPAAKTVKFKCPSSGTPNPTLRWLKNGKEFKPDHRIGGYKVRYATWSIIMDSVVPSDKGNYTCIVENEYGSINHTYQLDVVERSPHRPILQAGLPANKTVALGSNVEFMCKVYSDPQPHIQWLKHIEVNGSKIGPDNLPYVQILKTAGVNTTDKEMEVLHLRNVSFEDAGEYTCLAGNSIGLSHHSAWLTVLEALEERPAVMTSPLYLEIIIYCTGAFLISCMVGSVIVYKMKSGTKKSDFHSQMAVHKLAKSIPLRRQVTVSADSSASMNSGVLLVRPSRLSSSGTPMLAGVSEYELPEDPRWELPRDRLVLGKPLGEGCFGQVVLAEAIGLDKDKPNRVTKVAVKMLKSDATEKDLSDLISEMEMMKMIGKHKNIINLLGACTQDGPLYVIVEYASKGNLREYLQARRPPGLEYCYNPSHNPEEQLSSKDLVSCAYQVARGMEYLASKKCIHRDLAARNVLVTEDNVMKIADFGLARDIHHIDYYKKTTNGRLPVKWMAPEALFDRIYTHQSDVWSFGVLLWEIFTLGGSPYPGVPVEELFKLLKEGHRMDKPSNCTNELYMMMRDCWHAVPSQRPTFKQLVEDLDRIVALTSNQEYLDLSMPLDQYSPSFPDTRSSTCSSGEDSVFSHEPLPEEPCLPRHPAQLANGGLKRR
Chain of VEGFR2 (P35968 20-1356, species assumed): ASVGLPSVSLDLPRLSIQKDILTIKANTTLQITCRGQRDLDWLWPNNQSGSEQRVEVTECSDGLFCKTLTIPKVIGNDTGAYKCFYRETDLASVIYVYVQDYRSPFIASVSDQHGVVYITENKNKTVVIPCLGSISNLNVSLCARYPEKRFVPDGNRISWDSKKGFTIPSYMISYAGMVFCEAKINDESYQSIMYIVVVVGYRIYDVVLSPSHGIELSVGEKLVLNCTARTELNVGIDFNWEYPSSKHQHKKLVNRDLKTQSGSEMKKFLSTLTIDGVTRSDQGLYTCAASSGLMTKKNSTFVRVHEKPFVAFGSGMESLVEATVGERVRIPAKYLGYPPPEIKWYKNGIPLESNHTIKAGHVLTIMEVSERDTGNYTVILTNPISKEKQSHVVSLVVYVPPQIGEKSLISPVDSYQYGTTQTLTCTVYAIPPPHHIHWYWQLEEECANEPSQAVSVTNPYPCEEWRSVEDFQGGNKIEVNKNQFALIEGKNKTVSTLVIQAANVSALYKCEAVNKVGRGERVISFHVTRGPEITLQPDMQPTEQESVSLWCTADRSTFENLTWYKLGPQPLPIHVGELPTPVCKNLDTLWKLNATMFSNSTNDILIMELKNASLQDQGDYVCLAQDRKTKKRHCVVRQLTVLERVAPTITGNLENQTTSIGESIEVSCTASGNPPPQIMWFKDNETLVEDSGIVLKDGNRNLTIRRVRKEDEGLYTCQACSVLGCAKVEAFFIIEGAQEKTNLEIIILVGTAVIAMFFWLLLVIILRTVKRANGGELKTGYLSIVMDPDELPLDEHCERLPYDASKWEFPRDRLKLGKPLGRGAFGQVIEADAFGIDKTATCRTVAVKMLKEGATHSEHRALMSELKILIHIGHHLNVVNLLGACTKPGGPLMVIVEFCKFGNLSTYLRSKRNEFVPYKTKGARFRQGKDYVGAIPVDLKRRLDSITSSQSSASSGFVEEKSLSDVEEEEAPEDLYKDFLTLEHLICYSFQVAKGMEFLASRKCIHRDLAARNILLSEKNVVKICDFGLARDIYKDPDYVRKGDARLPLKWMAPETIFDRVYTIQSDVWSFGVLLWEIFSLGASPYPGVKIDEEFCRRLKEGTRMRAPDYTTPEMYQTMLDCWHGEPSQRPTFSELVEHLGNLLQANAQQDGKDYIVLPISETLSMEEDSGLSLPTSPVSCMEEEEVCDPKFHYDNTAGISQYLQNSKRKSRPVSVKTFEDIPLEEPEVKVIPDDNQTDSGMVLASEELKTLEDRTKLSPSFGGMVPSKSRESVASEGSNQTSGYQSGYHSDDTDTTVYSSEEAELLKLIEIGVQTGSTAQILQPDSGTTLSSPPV

| Structure (SMILES) | VEGFR2, rIC50 [1] | avg rIC50 [2] | avg rIC50 [2, 6] | IC50 [3, 7] | FGFR1, rIC50 [4, 9] | other results |
| --- | --- | --- | --- | --- | --- | --- |
| Oc1cc2c(cc1O)C1c3ccc(O)c(O)c3OCC1(O)C2 (stereo not shown) [compound 442514, Haematoxylin] | 9.5 | 5.5 |  |  |  |  |
| COc1cc(OC)cc(-c2cc3cnc(NCCCCN4CCN(C)CC4)cc3nc2NC(=O)NC(C)(C)C)c1 [compound 5330130, reference compound] |  |  | 4.3 |  |  | IC50 [3, 5]: 0.4 nM |
| COc1cc(OC)cc(-c2cc3cnc(NCCCCCN4CCN(C)CC4)cc3nc2NC(=O)NC(C)(C)C)c1 [compound 5330135, 1,6-Naphthyridine 25, reference compound] |  |  | 1.8 | 3 nM |  | IC50 [3, 5]: 3 nM |
| NC(=O)c1c(OCc2c(F)cc(Br)cc2F)nsc1NC(=O)NCCCCN1CCCC1 [compound 9811611, 3-((4-Bromo-2,6-difluorobenzyl)oxy)-5-(3-(4-(pyrrolidin-1-yl)butyl)ureido)isothiazole-4-carboxamide] | 0.4 |  | 3.6 | 1 nM | 6.7 | IC50 [3, 8]: 3.08 nM |
| COc1ccc(N2Cc3cnc(Nc4ccccc4)nc3N([C@@H]3CC[C@@H](O)C3)C2=O)cc1 [compound 9910609, (+)-(1R,3R)-1-(3-Hydroxy-cyclopentyl)-3-(4-methoxy-phenyl)-7-phenylamino-3,4-dihydro-1H-pyrimido[4,5-d]pyrimidin-2-one] | 0.4 |  | 1.4 | 28 nM | 2.4 | IC50 [3, 8]: 28 nM |
| CONC(=O)c1cc(Nc2ncnn3cc(-c4nnc(C(F)F)o4)c(C(C)C)c23)c(F)cc1F [compound 10073832, 5-[6-(5-Difluoromethyl-[1,3,4]oxadiazol-2-yl)-5-isopropyl-pyrrolo[2,1-f][1,2,4]triazin-4-ylamino]-2,4-difluoro-N-methoxy-benzamide] | 1.0 |  | 1.1 |  | 1.2 |  |
| CONC(=O)c1cc(Nc2ncnn3cc(-c4nnc(C)[nH]4)c(C(C)C)c23)c(F)cc1F [compound 11328182, 2,4-Difluoro-5-[5-isopropyl-6-(5-methyl-4H-[1,2,4]triazol-3-yl)-pyrrolo[2,1-f][1,2,4]triazin-4-ylamino]-N-methoxy-benzamide] | 1.1 | 1.0 |  | 46 nM |  | IC50 [3, 5]: 46 nM; FGFR1, rIC50 [4]: 1.0 |
| COc1ccc(N2Cc3cnc(Nc4ccc(F)cc4)nc3N([C@@H]3CC[C@@H](O)C3)C2=O)cc1 [compound 11396738, 7-(4-Fluoroanilino)-1-[(1R,3R)-3-hydroxycyclopentyl]-3-(4-methoxyphenyl)-4H-pyrimido[4,5-d]pyrimidin-2-one, reference compound] | 0.6 | 1.2 |  |  |  | IC50 ([3]; read-out: Min IC50_μM): 83 nM; IC50 ([3]; read-out: min IC50): 83 nM |
| COc1ccc(N2Cc3cnc(Nc4ccccc4)nc3N([C@H]3CC[C@H](O)C3)C2=O)cc1 [compound 11407794, (−)-(1S,3S)-1-(3-Hydroxy-cyclopentyl)-3-(4-methoxy-phenyl)-7-phenylamino-3,4-dihydro-1H-pyrimido[4,5-d]pyrimidin-2-one] | 0.5 |  | 1.5 | 33 nM | 2.5 | IC50 [3, 8]: 33 nM |
| CONC(=O)c1cc(Nc2ncnn3cc(-c4nnc(C(F)(F)S(C)(=O)=O)o4)c(C(C)C)c23)c(F)cc1F [compound 11432911, 5-{6-[5-(Difluoro-methanesulfonyl-methyl)-[1,3,4]oxadiazol-2-yl]-5-isopropyl-pyrrolo[2,1-f][1,2,4]triazin-4-ylamino}-2,4-difluoro-N-methoxy-benzamide] | 1.0 |  | 2.9 |  | 4.8 |  |
| Cc1cc2cc(Nc3ncnn4cc(-c5nnc(C)o5)c(C(C)C)c34)cnc2[nH]1 [compound 22273644, 5-Isopropyl-6-(5-methyl-1,3,4-oxadiazol-2-yl)-N-(2-methyl-1H-pyrrolo[2,3-b]pyridin-5-yl)pyrrolo[2,1-f][1,2,4]triazin-4-amine] | 0.5 |  | 1.8 | 25 nM | 3.1 | IC50 [3, 8]: 53 nM |
| Oc1ccc(C[C@@]2(O)COc3c(ccc(O)c3O)[C@H]2O)cc1O [compound 24949852, Epihematoxylol] | 5.8 | 3.7 |  |  |  |  |
| CNC(=O)c1cccc2cc(Oc3ccnc4cc(OCC5(N)CC5)c(OC)cc34)ccc12 [compound 25031915, Lucitanib] | 3.6 |  | 3.0 | 10 nM |  | FGFR1, rIC50 [4]: 2.5 |
| CCS(=O)(=O)c1ccc2c(c1)C(=Cc1[nH]c3c(c1CN1CCOCC1)CCCC3)C(=O)N2 [compound 44299203, 3-[3-(Morpholinomethyl)-4,5,6,7-tetrahydro-1H-indole-2-ylmethylene]-5-(ethylsulfonyl)-2,3-dihydro-1H-indole-2-one] | 1.4 |  | 3.6 | 70 nM | 5.7 |  |
| Cc1nnc(-c2cn3ncnc(Nc4cnc5[nH]ccc5c4)c3c2C(C)C)o1 [compound 44449577, 6-(5-Methyl-1,3,4-oxadiazol-2-yl)-5-propan-2-yl-N-(1H-pyrrolo[2,3-b]pyridin-5-yl)pyrrolo[2,1-f][1,2,4]triazin-4-amine] | 0.5 | 1.2 |  |  |  | IC50 ([3]; read-out: Min IC50_μM): 61 nM; IC50 ([3]; read-out: min IC50): 61 nM; FGFR1, rIC50 [4]: 2.0 |
| O=C1c2ccc(O)c(O)c2OC[C@]1(O)Cc1ccc(O)c(O)c1 [compound 44578561, Hematoxylone] | 7.2 |  | 5.3 |  | 3.4 |  |
| CN(C)CCCc1cccc(Nc2ncc3c(n2)-c2ccc(Cl)cc2NC(=S)C3)c1 [compound 56945277, 9-Chloro-2-[3-[3-(dimethylamino)propyl]anilino]-5,7-dihydropyrimido[5,4-d][1]benzazepine-6-thione] |  |  |  |  | 2.4 |  |
| CNC(=O)c1cccc2cc(Oc3ccnc4cc(OCC5(N)CC5)c(OC)cc34)ccc12.Cl [compound 57379018, 6-((7-((1-Aminocyclopropyl)methoxy)-6-methoxyquinolin-4-yl)oxy)-N-methyl-1-naphthamide hydrochloride] | 3.6 |  | 3.0 |  |  | IC50 ([3]; read-out: min IC50): 10 nM; FGFR1, rIC50 [4]: 2.5 |
| CCN1CCC(Nc2ccc3c(c2)/C(=C(\c2cccc(F)c2)c2nc(C)c[nH]2)C(=O)N3)CC1 [compound 67163677, XL999; XL-999; XL 999, reference compound] |  |  | 2.0 | 2 nM |  |  |
| CNC(=O)c1cc(F)cc(N(CCNC(C)C)c2ccc3ncc(-c4cnn(C)c4)nc3c2)c1 [compound 68209105, reference compound] |  |  | 2.8 | 2 nM |  | IC50 ([3]; Table 2, lowest reported IC50 to any gene target, read-out: Min IC50_μM): 3.16 nM |
| COC(=O)c1ccc2c(c1)NC(=O)/C2=C(\Nc1ccc(CN2CCCCC2)cc1)c1ccccc1 [compound 135476706, Methyl (3Z)-2-oxo-3-[phenyl-[4-(piperidin-1-ylmethyl)anilino]methylidene]-1H-indole-6-carboxylate] | 1.1 | 1.7 |  |  |  | IC50 ([3]; read-out: min IC50): 32 nM |
| COC(=O)c1ccc2c(c1)NC(=O)/C2=C(\Nc1ccc(N(C)C(=O)CN2CCN(C)CC2)cc1)c1ccccc1 [compound 135476717, Nintedanib esylate] | 1.6 | 3.5 |  | 13 nM |  |  |
